This is an account of results in paper PMC10742472, “Synthesis and Characterisation of Platinum(II) Diaminocyclohexane Complexes with Pyridine Derivatives as Anticancer Agents” (International Journal of Molecular Sciences, 2023).

The subject of one series is Du145 (Prostate). The series is described as follows: MTT cytotoxicity assay, Du145. It is filed as cell-based. As to conditions: 72 h exposure.
The next series deals with Calf-thymus DNA (ctDNA). The series is described as follows: Fluorescent intercalator displacement (FID) ctDNA binding assay with ethidium bromide. Also on record: Ka (binding coefficient) / KF (binding constant for fluorescence) / Kq (bimolecular quenching constant) / KSV (Stern–Volmer quenching constant): unit not given here. As to conditions: 75 µM ethidium bromide, 150 µM ctDNA, pH 7.0. On the procedure: To achieve this, the fluorescent signal of a DNA intercalator, in this case, ethidium bromide (EtBr), is measured as increasing concentrations of PC are added. As the PC displaces the EtBr, the fluorescence of the mixture is diminished, and the DNA binding capacity of the complex can be calculated from the fluorescence measurement. Calf-thymus DNA (ctDNA) was used and saturated with EtBr. The change in fluorescence is monitored as the complex is titrated into this solution. Once the decrease in fluorescence plateaued, the titration was ended. […] The fluorescence was measured from 550-750 nm and excited at 480 nm. Importantly, the cuvette was inverted four times, and the solution was incubated for 3 min after the addition of […] to allow adequate time for the PCs to interact with the DNA before scanning. […] A plot of F0/F against [PC] using experimental values allowed the determination of Kq and KSV from the slope as per Equation (5). (5) […] where n is the number of ethidium ligands that are displaced per PC. It is important to note that this expression is a simplification of the true binding interaction, as it ignores the effect of EtBr on the binding equilibrium. […] A plot of Log10[(F0 - F)/F)] against Log10[PC] was used to determine KF and n from the intercept and slope, respectively.

The next series has as its system MIA (Pancreas). The series is described as follows: MTT cytotoxicity assay, MIA. It is filed as cell-based. As to conditions: 72 h exposure.
For a further series, the system named is MCF-7 (Breast). The series is described as follows: MTT cytotoxicity assay, MCF-7. Format: cell-based. As to conditions: 72 h exposure.
A further series deals with U87 (Glioblastoma). The series is described as follows: MTT cytotoxicity assay, U87. Format: cell-based. As to conditions: 72 h exposure.
Another series deals with BE2-C (Neuroblastoma). Description: MTT cytotoxicity assay, BE2-C. Format: cell-based. As to conditions: 72 h exposure.
The next series concerns H460 (Lung). The series is described as follows: MTT cytotoxicity assay, H460. As to conditions: 72 h exposure. It is filed as cell-based.
The subject of a further series is MCF10A (Breast, Normal). Description: MTT cytotoxicity assay, MCF10A non-cancer breast cells. Format: cell-based. As to conditions: 72 h exposure.
For the next series, the system named is SJ-G2 (Glioblastoma). The series is described as follows: MTT cytotoxicity assay, SJ-G2. Format: cell-based. As to conditions: 72 h exposure.
The format of series [1] is physicochemical. The procedure:
Lipophilicity was calculated using RP-HPLC. A stock solution of each PC was injected at different isocratic ratios ranging from 70–90% solvent B (organic) at a flow rate of 1 mL·min^−1 [32, 33, 34]. The complexes have low solubility in water, often requiring DMSO to make concentrated solutions. Yet the LogK’ calculated using these experimental data indicated high lipophilicity, which is typical for 2+ charged complexes. […] When heat was applied, they would not precipitate out of the solution after cooling. This confirmed that a lack of persistence was the cause of the “observed” low solubility in H2O. […] Their increased lipophilicity may indicate they have the potential to be administered orally, a characteristic usually associated with Pt(IV) complexes. Other factors, such as stability and cellular absorption, would need to be considered before the potential of these Pt(II) anticancer agents could be evaluated.
Lipophilicity was evaluated using RP-HPLC, whereby LogKw is calculated by injecting a stock solution of the PC at different isocratic ratios ranging from 70–90% solvent B (organic) at a flow rate of 1 mL·min^−1. An Agilent Technologies 1260 Infinity machine equipped with a Phenomenex Onyx™ Monolithic C18 reverse phase column (100 × 4.6 mm, 130 Å) was used to determine purity. The mobile phase comprised 0.06% TFA in water (solvent A) and 0.06% TFA in 90:10 ACN:H2O mixture (solvent B). The PC peak was eluted outside the dead zero volume time to avoid inaccurate results. The dead zero volume time was determined using potassium iodide as an external dead volume marker, with further details in the Supplementary Materials. The subsequent peaks were recorded, and K was calculated using Equation (6). (6) K=tr−t0/t0 where K is the capacity factor, tr is the retention time of the analyte, and t0 is the dead time determined using a solution of KI in the same column. At least five different isocratic ratios were used to assess each PC, and each experiment was repeated three times. LogK’ was then calculated and plotted against the concentration of ACN in the mobile phase. […] (7) LogK^′=Sφ+LogKw where S is the slope, φ is the concentration of ACN in the mobile phase, and LogKw represents the capacity factor of the compound in 100% water (Figure S49).

The test system of the next series is A431 (Skin). Description: MTT cytotoxicity assay, A431. Format: cell-based. As to conditions: 72 h exposure.
The subject of the next series is HT29 (Colon). The series is described as follows: MTT cytotoxicity assay, HT29. Format: cell-based. As to conditions: 72 h exposure.

`N[C@H]1CCCC[C@@H]1N.[Pt+2].c1ccc(-c2nc3ccccc3[nH]2)nc1` [Complex 6a]: the GI50 was 0.3 ± 0.04 µM in the series with Du145 (Prostate); 0.3 ± 0.03 µM in the series on MIA (Pancreas); 0.16 ± 0.03 µM in the series with MCF-7 (Breast); 0.034 ± 0.003 µM with U87 (Glioblastoma); 0.19 ± 0.02 µM in the series with BE2-C (Neuroblastoma); 0.26 ± 0.04 µM in the series on H460 (Lung). For the same compound, the GI50 in the series on MCF10A (Breast, Normal) was determined as 0.15 ± 0.01 µM; in the series with SJ-G2 (Glioblastoma), 2.7 ± 0.29 µM; with A431 (Skin) it was 0.36 ± 0.05 µM; in the series with HT29 (Colon), 0.45 ± 0.02 µM. For the same compound, the “Binding Stoichiometry” value with Calf-thymus DNA (ctDNA) was 0.84. In the series on Calf-thymus DNA (ctDNA), the “KF (binding constant for fluorescence)” value is 2.94 × 10^3. In addition, in the series with Calf-thymus DNA (ctDNA), the “KSV (Stern–Volmer quenching constant)” value is 2.12 × 10^3. For the same compound, in the series with Calf-thymus DNA (ctDNA), the “Ka (binding coefficient)” value is recorded as 0.66 × 10^4. The “Kq (bimolecular quenching constant)” value in the series on Calf-thymus DNA (ctDNA) is listed as 0.30 × 10^3. In addition, the “n (molar equivalents of PC at the point of intersection)” value in the series on Calf-thymus DNA (ctDNA) was 0.71. The “ΔFsat (change in fluorescence at the point of binding)” value in the series with Calf-thymus DNA (ctDNA) is 116.7. The Lipophilicity in series [1] came to 2.42 ± 0.02.
Consider “[Pt(2-(2-pyridyl)benzimidazole)(1R,2R-(+)-diaminocyclohexane)]^2+ [Complex 6b]”, for which the GI50 in the series on Du145 (Prostate) stood at 22 ± 1.5 µM; with MIA (Pancreas) it was 30 ± 6.9 µM; with MCF-7 (Breast) it was 8 ± 1.6 µM; in the series on U87 (Glioblastoma) it was 7.6 ± 0.46 µM; in the series with BE2-C (Neuroblastoma), 30 ± 2.1 µM; in the series with H460 (Lung) it was 16 ± 1.2 µM. The GI50 amounted to 17 ± 1.5 µM in the series with MCF10A (Breast, Normal); 38 ± 5.9 µM in the series with SJ-G2 (Glioblastoma); 24 ± 2.6 µM in the series with A431 (Skin); 33 ± 1.2 µM with HT29 (Colon). For the same compound, the “Binding Stoichiometry” value with Calf-thymus DNA (ctDNA) is 0.94. Besides, in the series with Calf-thymus DNA (ctDNA), the “KF (binding constant for fluorescence)” value is given as 2.84 × 10^3. Also, in the series on Calf-thymus DNA (ctDNA), the “KSV (Stern–Volmer quenching constant)” value is given as 2.07 × 10^3. In the series on Calf-thymus DNA (ctDNA), the “Ka (binding coefficient)” value is on record as 7.43 × 10^4. Further, in the series on Calf-thymus DNA (ctDNA), the “Kq (bimolecular quenching constant)” value is listed as 0.30 × 10^3. Besides, in the series on Calf-thymus DNA (ctDNA), the “n (molar equivalents of PC at the point of intersection)” value is on record as 0.67. Further, the “ΔFsat (change in fluorescence at the point of binding)” value with Calf-thymus DNA (ctDNA) stood at 113.0. Moreover, the Lipophilicity in [1] was 2.46 ± 0.025.
